ChEMBL document CHEMBL3507680, “University of Dundee, Gates Library screen for HepG2 cell viability”

Assay: Human HepG2 cell viability assay in 384 well format
Assay type: toxicity, cell-based
Set-up: dose 125 nL, time 70.5 hour; cytotoxicity at 70.5 h: concentration not given beside the values
Settings: HepG2 cells, read-out: Inhibition

Row | SMILES | cytotoxicity at 70.5 h
1 | CCOC(=O)C1CCN(C(=O)c2cnn(-c3ccc(C)cc3)c2N)CC1 | -5.44%
2 | CN1C(Cn2cccn2)C[C@@H]2CN(Cc3cccnc3)CC[C@@H]21 (stereo partly drawn) | -6.35%
3 | O=C1CC(c2ccccc2)c2sc(C(=O)O)c(-c3ccccc3)c2N1 (stereo not drawn) | -8.23%
4 | Cc1cc(C(=O)NCC(C)N2CCc3ccccc32)no1 (stereo not drawn) | 15.4%
5 | CN(Cc1cnn(C)c1)C(=O)NCc1nnc2n1CCC2 | -25.4%
6 | O=C(Nc1ccc(-n2cccn2)c(F)c1)C1CCN(C(=O)C2CC2)CC1 | -0.357%
7 | CCCn1c(C)c(CC(=O)N(C)CCO)c2c1CC(C)(C)CC2=O | 26.2%
8 | COc1ccccc1C1Cn2ccnc2CN1Cc1c[nH]nc1C (stereo not drawn) | -1.22%
9 | COCCN1CCN(CCCS(=O)(=O)c2ccccc2)CC1C (stereo not drawn) | 0.059%
10 | O=C(CCn1cccn1)N1CCC(c2nnc(-c3ccsc3)o2)CC1 | -8.63%
11 | CC(C)[C@H]1CN(C2Cc3ccccc3C2)C[C@@H]1NS(=O)(=O)N(C)C | 0.396%
12 | O=C(c1cnn[nH]1)N(Cc1ccncc1)CC1CCCO1 (stereo not drawn) | -0.844%
13 | CCCn1ccnc1CNC(=O)C1COc2cc(OC)ccc2C1 (stereo not drawn) | -5.58%
14 | CN(C)c1cc(CNc2cncc(-n3cccn3)n2)ccn1 | -15.7%
15 | COc1ccc(CN2CCOC[C@H](OCCC(C)C)C2)cc1 | -4.37%
16 | CC[C@H]1N(C)CCC[C@]12CCC(=O)N2Cc1ccncc1 | 10.9%
17 | CCCC(C)N(C)Cc1nnc(-c2ccc(Br)s2)o1 (stereo not drawn) | -4.09%
18 | O=C(c1cnccn1)N1CCN2C[C@H](Oc3cccc(F)c3)C[C@H]2C1 | -2.2%
19 | CC(C)(C)C(=O)CN1CCc2ccccc2NCCC1=O | 3.4%
20 | O=C(NC1CCC1)c1cccc(S(=O)(=O)NCc2nc(C3CC3)no2)c1 | 6.45%
21 | O=C(NCCCn1cccn1)C1(c2cccc(Cl)c2)CC1 | 55.5%
22 | O=S(=O)(NC1CCCN(c2ncccn2)C1)N1CCCCCC1 (stereo not drawn) | -7.28%
23 | O=C(NCCNc1ncccn1)N1CCCC1c1ccc(F)cc1 (stereo not drawn) | -9.37%

Row | SMILES | cytotoxicity at 70.5 h
24 | Cc1cnn(C2CN(Cc3noc(C4CC4)n3)C2)c1 | -4.77%
25 | CC(C)COCCNC(=O)NC1CCCN(c2cnn(C)c2)C1 (stereo not drawn) | -0.131%
26 | Cc1cc(C(F)(F)F)nc(CNC(=O)CCC2CCCCN2C)n1 (stereo not drawn) | 0.421%
27 | CN(C)CC1(O)CCCN(c2ccnc3c(C(F)(F)F)cccc23)C1 (stereo not drawn) | -5.96%
28 | CC(C)=CCCC(C)CN1CCC(n2cc(C(C)(C)O)nn2)CC1 (stereo not drawn) | -8.45%
29 | Cc1nnc(NC(=O)NCC(C)N2CCOCC2)s1 (stereo not drawn) | -11%
30 | CC(C)N(CCSc1ncnc2[nH]ncc12)C(C)C | -1.52%
31 | N#Cc1ccc(OCCn2cccn2)cc1 | -16.4%
32 | COCc1ccccc1C(=O)N1CCC(CNC(=O)OC(C)(C)C)C1 (stereo not drawn) | -6.54%
33 | N#Cc1ccc(OCCCN2CCc3cncnc3C2)cc1 | -0.112%
34 | CN(C)c1cncc(C2CCCN2S(=O)(=O)c2cn(C)cn2)n1 (stereo not drawn) | 14.9%
35 | Cc1nc(NCCN2CCCC2=O)cc(C2CN(C(C)C)CCO2)n1 (stereo not drawn) | 1.39%
36 | CN(C)S(=O)(=O)CCCN1CCCC1c1noc(C2CC2)n1 (stereo not drawn) | 22.8%
37 | CN1CCC/C1=N\S(=O)(=O)c1ccc(NC(=O)CCc2cccs2)cc1 | -1.04%
38 | Cc1ccc(N2CCCc3sc(C(=O)NCC4CCCO4)nc32)nn1 (stereo not drawn) | -8.45%
39 | Cc1cnn(C2CCCN(C(=O)Cc3n[nH]c4ccccc34)C2)c1 (stereo not drawn) | 0.337%
40 | CCc1cc(N2CCC(NCCc3nc(C)c(C)s3)CC2)nc(C)n1 | -12.2%
41 | CN(Cc1cnn(C)c1)C(=O)NC1CCS(=O)(=O)C1 (stereo not drawn) | -6.09%
42 | COC[C@@H]1CCC[C@@]12CN(C(=O)N(C)C)CCO2 | 0.626%
43 | CCC(C)N(Cc1cccnc1)Cc1cc2c(cc1Cl)OCO2 (stereo not drawn) | -1.59%
44 | CC(Cn1ccnc1)NC1CCN(Cc2cccc(O)c2)CC1 (stereo not drawn) | -4.85%
45 | CC(C)(C)CN1CCN2C(=O)N(C3CCCCC3)C[C@H]2C1 | -11.1%
46 | Cc1cc(N2CCC(CC(N)=O)CC2)nc(-c2ccncc2)n1 | -6.56%

Row | SMILES | cytotoxicity at 70.5 h
47 | CN(CCCc1cc(-c2ccc(F)cc2)n(C)n1)CC(N)=O | -11.3%
48 | COc1ccc(CNc2c(C)nn(C(C)C)c2C)cc1OC | -2.06%
49 | C1CCC(c2nnc3sc(C4CCOC4)nn23)C1 (stereo not drawn) | -13.4%
50 | Cc1cc(C)c(S(=O)(=O)NCCC(=O)NCc2ccoc2)c(C)c1 | 3.02%
51 | Cc1ccc(CN2C[C@H]3CN(Cc4ccccc4Cl)CCN3C2=O)cc1 | -9.42%
52 | Cc1nc(C)c2c(n1)CCN(Cc1nccn1C)CC2 | -8.56%
53 | CN(C)c1cc(CNC(=O)c2cc(Cl)ccn2)ccn1 | -11.8%
54 | O=C(c1ccc(-n2ccnc2)nn1)N1CCCCC1Cn1cccn1 (stereo not drawn) | -5.22%
55 | Cc1nc(C)c(CNC(=O)N2CCc3ccccc3C2CO)s1 (stereo not drawn) | -1.94%
56 | Cc1noc(C)c1-c1nc(C2CCCN(C(=O)CN)C2)ccc1CO (stereo not drawn) | -11.3%
57 | O=C(CN1CCOC(CNc2cccnn2)C1)N1CCCCC1 (stereo not drawn) | -6.36%
58 | CC(C)NC(=O)c1cccc(NC(=O)CCCc2nc(C(C)C)no2)c1 | 5.5%
59 | COc1cc(C(=O)N2CC[C@@H](NC(=O)c3ccccn3)[C@H](O)C2)ccn1 | -9.28%
60 | CC(C)N1C[C@@H](CO)[C@H](c2ccccc2)S1(=O)=O | -3.46%
61 | Cc1cc(C(=O)NCC2SCCc3ccccc32)no1 (stereo not drawn) | -14.4%
62 | Cc1cc(CC(=O)N2CCCC2c2nc(C(C)C)no2)on1 (stereo not drawn) | 5.26%
63 | CCNC(=O)[C@@H]1CN(Cc2ccccc2)C[C@H]1C(=O)c1ccc(F)cc1 | -0.813%
64 | Cc1csc(C(=O)N2CCC3(CC(N(C)c4ccncn4)C3)C2)c1 (stereo not drawn) | -5.37%
65 | O=C(c1cccnc1)N1CCC2(CCN(C(=O)N3CCCC3)CC2)C1 | -0.226%
66 | CC(C)n1cc(C(=O)NCCN(C)C)c2n[nH]c(=O)c-2c1 | 1.2%
67 | N#Cc1ncn(CCC(=O)Nc2ccc(F)c(F)c2)n1 | -9.3%
68 | CN1CC[C@H](N(Cc2ccccc2)CC2CC2)C[C@H](O)C1 | 9.84%
69 | CN(C)CC(=O)N1CCC2(CC1)CN(c1ncccn1)CCO2 | 5.39%

Row | SMILES | cytotoxicity at 70.5 h
70 | Cc1cc(-c2cnc(NC3CC3)nc2-c2ccco2)on1 | -12.6%
71 | CC1CCN(C(=O)c2occc2COc2cccc(C#N)c2)CC1 | 8.42%
72 | CN(Cc1ccco1)C(=O)CN1CCOC(Cn2cncn2)C1 (stereo not drawn) | -3.13%
73 | CN(C)CC1CSCCCN1S(=O)(=O)c1ccc(C(F)(F)F)cc1 (stereo not drawn) | -3.11%
74 | CN(C)c1nc(CNC(=O)N[C@H](CO)c2ccccc2)cs1 | 30.7%
75 | Cc1cc(NCc2ccc(CO)cc2)n2nc(C)cc2n1 | -0.853%
76 | Cc1cccc(S(=O)(=O)N2CSCC2C(=O)NC(C)(C)C)c1 (stereo not drawn) | -3.48%
77 | CC(Nc1ccc(C#N)cc1F)c1cccc(S(N)(=O)=O)c1 (stereo not drawn) | 16.2%
78 | O=C(NCc1ccc(F)cc1)N1CCN(CC(O)C2CC2)CC1 (stereo not drawn) | -2.01%
79 | O=C(COc1ccccc1)N1CCC[C@]2(C[C@H](OCC3CC3)CO2)C1 | -7.58%
80 | CCCOc1ccc(C(=O)N2CCN3CCNC(=O)C3C2)cc1Cl (stereo not drawn) | -8.43%
81 | Cc1c(C)n(Cc2ccncc2)c2nc3c(c(N)c12)CCCC3 | -7.64%
82 | Cc1nnc(SCc2cc(=O)n3c4c(sc3n2)CCCC4)[nH]1 | -8.32%
83 | CS(=O)(=O)c1ccc(NCCC2CCCO2)c(S(C)(=O)=O)c1 (stereo not drawn) | -16.8%
84 | Cc1cc(N(C)Cc2cc(C(C)(C)C)n[nH]2)nc(-c2cccnc2)n1 | 41.6%
85 | COCCC(C)NS(=O)(=O)c1ccc(C)c(N(C)C)c1 (stereo not drawn) | -2.25%
86 | O=C(CCc1ccc(O)cc1)N1CCC(Cc2ccc(CO)cc2)C1 (stereo not drawn) | -9.62%
87 | Cc1cnn(CCNCc2ccc(OCC(N)=O)cc2)c1 | -6.65%
88 | Cc1nccn1CCCNc1nccnc1C#N | 44.8%
89 | Cc1c(Br)cccc1CNC1(CCO)CCOCC1 | -1.58%
90 | CN(C)C(=O)CC1CC2(CCNCC2)c2cc(F)ccc21 (stereo not drawn) | -8.47%
91 | CCOC(=O)[C@]12CCCN(Cc3nccs3)C[C@H]1CN(CCN(C)C)C2 | -10.1%
92 | Cc1cc(CN2CCN(C(=O)NCc3csc(C)n3)CC2)no1 | 17.1%

Row | SMILES | cytotoxicity at 70.5 h
93 | CCN1C[C@H]2[C@@H](C1)N(C(=O)Cc1ccsc1)CC[C@H]2OC | -7.9%
94 | COc1c(C)cnc(CSc2nnc(N3CCCC3)s2)c1C | 8.14%
95 | c1cc(-c2c[nH]c([C@@H]3COCCN3C3CCOCC3)n2)ccn1 | -0.86%
96 | Cc1csc(N2CCN(C(=O)CCn3cncn3)CC2)n1 | -7.97%
97 | Cc1cc(CN(C)C(=O)c2cccc(N3CCCC3=O)c2)no1 | -9.25%
98 | CN(C)c1nc2c(c(N3CCCC3)n1)CCN(C(=O)c1ccc[nH]1)CC2 | 25.5%
99 | O=C(NCCc1ccccn1)Nc1cc(C(F)(F)F)c[nH]c1=O | -2.62%
100 | CN(C)CC1(O)CCN(S(=O)(=O)c2ccc(F)cc2)C1 (stereo not drawn) | 30.9%
101 | COCCN1CCC(NCc2cc(F)ccc2F)C1 (stereo not drawn) | 22.5%
102 | Cc1ccccc1NC(=O)N1CCN(C(=O)C2CC2)[C@@H]2CS(=O)(=O)C[C@@H]21 | -6.63%
103 | CN(C)C(=O)[C@@H]1CC[C@@H]2[C@@H](CCN2Cc2nccs2)O1 | -14.7%
104 | COc1ccccc1CC(C)N(C)CCS(C)(=O)=O (stereo not drawn) | -14.1%
105 | OC1(Cn2ccc3ccncc32)CCN(Cc2ccccn2)CC1 | -2.48%
106 | Cc1nccc(C2CCCN(S(=O)(=O)N3CCOCC3)C2)n1 (stereo not drawn) | 19.2%
107 | Cc1cnn(CC2CCCCN2C(=O)c2ccc3[nH]nnc3c2)c1 (stereo not drawn) | -11.6%
108 | CC(C)N1CCCN(c2nc(-c3cccnc3)nc3c2cnn3C)CC1 | 36.6%
109 | Cc1ccc(-c2cn3c(n2)CO[C@@H](CNCc2nccs2)C3)cc1 | -2.93%
110 | CN(CC(=O)N(C)C1CCCCC1)Cc1nc2ccccc2c(=O)[nH]1 | -6.53%
111 | CC1CCN(c2ncc3c(n2)CN(c2ccc(F)cc2)C3=O)CC1 | -2.02%
112 | CC(C)c1nsc(N2CCOC3(CCCC3)C2)n1 | -2.46%
113 | O=C(NCC1CCOC1)N1CCN(Cc2ccc3c(c2)OCO3)CC1 (stereo not drawn) | 3.28%
